# Data: patent US20230147040A1, “METHOD FOR PROGNOSIS PREDICTION OF SKIN CANCER AND USE THEREOF” (PUBLIC UNIVERSITY CORPORATION NAGOYA CITY UNIVERSITY, priority 2020, published 2023)
# Legend:
# Type in all cases: in vivo
# Merkel cell carcinoma = experiment: Clinical course of Merkel cell carcinoma cases under treatment
# cutaneous angiosarcoma = experiment: Clinical course of cutaneous angiosarcoma cases under treatment; settings: primary lesion in the head
# G6PD = G6PD activity in patient serum (G6PD assay kit); settings: Case 4, avelumab and IMRT in combination
# Protocol: For 50 patient serum specimens of 19 cases, the G6PD activity was measured using a G6PD assay kit (Abeam, ab102529). The average activity value of the 50 specimens was 11.45 mU/ml.
# The course of Merkel cell carcinoma was confirmed for the cases (Case 1 to 3) of 3 specimens having a particularly high G6PD activity (19 mU/ml or more) among the 50 specimens. In addition, the course of Merkel cell carcinoma was confirmed for a case (Case 4) having a decreased G6PD activity. In FIGS. 6 to 8 shown below, the vertical axis represents the G6PD activity (mU/ml), and the horizontal axis represents the period.
# [1] = Case B, wPTX, then changed to eribulin
compound,measurement,setting,value
COc1cc([C@@H]2c3cc4c(cc3[C@@H](O[C@@H]3O[C@@H]5CO[C@@H](C)O[C@H]5[C@H](O)[C@H]3O)[C@H]3COC(=O)[C@H]23)OCO4)cc(OC)c1O [VP-16],therapeutic effect,"Merkel cell carcinoma; Case 1, stage IV, systemic lymph node metastasis after surgical resection and radiation therapy, combination therapy of CBDGB and VP-16",no therapeutic effect was observed
C=C1C[C@@H]2CC[C@@]34C[C@H]5O[C@H]6[C@@H](O3)[C@H]3O[C@H](CC[C@@H]3O[C@H]6[C@H]5O4)CC(=O)C[C@@H]3[C@@H](OC)[C@@H](C[C@H](O)CN)O[C@H]3C[C@H]3O[C@@H](CC[C@@H]1O2)C[C@@H](C)C3=C [eribulin],clinical course,cutaneous angiosarcoma; [1],pneumothorax (PD) was developed
CC(=O)O[C@@]12CO[C@@H]1C[C@H](O)[C@@]1(C)C(=O)[C@H](O)C3=C(C)[C@@H](OC(=O)[C@H](O)[C@@H](NC(=O)OC(C)(C)C)c4ccccc4)C[C@@](O)([C@@H](OC(=O)c4ccccc4)[C@H]21)C3(C)C [wDTX],clinical course,"cutaneous angiosarcoma; Case C, upon administration of wDTX",pneumothorax was developed
CC(=O)O[C@H]1C(=O)[C@@]2(C)[C@H]([C@H](OC(=O)c3ccccc3)[C@]3(O)C[C@H](OC(=O)[C@H](O)[C@@H](NC(=O)c4ccccc4)c4ccccc4)C(C)=C1C3(C)C)[C@]1(OC(C)=O)CO[C@@H]1C[C@@H]2O [wPTX],clinical course,"cutaneous angiosarcoma; Case A, wPTX therapy and radiation therapy",the performance status (PS) deteriorated
same,clinical course,cutaneous angiosarcoma; [1],parotid lymph node metastasis was observed
avelumab,G6PD activity,G6PD,significantly reduced
same,clinical outcome,"Merkel cell carcinoma; Case 1, stage IV, trial of avelumab after failed combination chemotherapy",death of current disease was caused after several months
same,PET/CT accumulation in right submandibular lymph node,"Merkel cell carcinoma; Case 4, stage III, avelumab alone, after 3 months",enhancement of the accumulation was observed
same,clinical outcome,"Merkel cell carcinoma; Case 4, stage III, avelumab in combination with IMRT",complete remission (CR)
